The target of one assay is T1, FXR LBD, GST (Homo sapiens, UniProt Q96RI1).
T1 construct: FXR LBD, GST; purchased Invitrogen PV4834
T1 sequence (Q96RI1 262-486 limits assumed): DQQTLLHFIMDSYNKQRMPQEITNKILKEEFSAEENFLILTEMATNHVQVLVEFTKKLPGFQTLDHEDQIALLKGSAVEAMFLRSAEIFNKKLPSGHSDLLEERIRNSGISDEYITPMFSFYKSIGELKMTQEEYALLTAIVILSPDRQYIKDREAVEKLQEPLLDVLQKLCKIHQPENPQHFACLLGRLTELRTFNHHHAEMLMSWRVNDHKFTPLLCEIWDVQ
Nature of the assay: FXR Binding Assay (TR-FRET, Fluorescein-SRC2-2 coactivator peptide). The following applies: for Emax: % Activity relative to positive control, read-out: Pct Effect (Emax %); for pEC50: TR-FRET FXR LBD coactivator recruitment. On the procedure: The interaction between the present compounds and FXR are evaluated by Time-Resolved Fluorescence Resonance Energy Transfer (TR-FRET) competition assay. FRET describes a radiation-free energy transfer between two chromophores: a donor fluorophore in its excited state can transfer energy to an acceptor fluorophore in close proximity (typically <10 nm). In contrast to standard FRET, TR-FRET unites time-resolved fluorescence (TRF) and the FRET principle, TRF use a long-lifetime lanthanide chelate as the donor species, while lanthanide chelates are unique in that their excited-state lifetime can be on the order of a millisecond or longer. Suitable neighbors for FRET are known in the art and can be obtained.
The assay was performed in following steps: first, prepared a) 1 mM compounds (100×) in DMSO; b) reaction buffer containing 1× buffer G with 10 mM DTT; c) 4×FXR LBD (20 nM) in 1× chilled buffer G. Second, performed 3-fold serial dilution of 1 mM test compounds using DMSO from 1 mM, 10 doses in a 96-well plate (249944, Nunc). Then, used complete buffer G to dilute each 100× compounds serial dilution to 2×. Third, added 10 μl 2× compound serial dilution into 384-well plate (3677, Corning). Then, added 5 μl FXR LBD into the assay plate. Prepared a solution containing 2 μM fluorescein-SRC2-2 (4×) and 20 nM Tb anti-GST antibody (4×) in buffer G at room temperature and started the reaction by adding 5 μl the above solution into each well of the assay plate. Centrifuged the assay plates at 1000 g for 1 min and then incubated at room temperature for lhr protected from light. Finally, the plate was read at wavelengths of 520 nm and 495 nm on Envision 2104 plate reader (PerkinElmer).
A ratio (Ratio520 nm/495 nm−Ratiobackground) was calculated for each well. The activity ratio was calculated as follow: […]
Ratiopositive: The average ratio for the positive control across the plate.
Ratiovehicle: The average ratio for negative controls across the plate.
(§1) EC50 was calculated by fitting % Activity values and log of compound concentrations to nonlinear regression (dose response-variable slope) with GraphPad 5.0.
(§2) X: log of compound concentration.
Background: Time-resolved FRET reads energy transfer from a long-lived donor to a nearby acceptor.

The target in assay [1] is T2, hFXR-LBD (FXR-GAL4 chimeric receptor) (Homo sapiens, UniProt Q96RI1).
T2 construct: host or cells: HEK293T
T2 sequence (Q96RI1 262-486 limits assumed): T1 sequence (Q96RI1 262-486 limits assumed)
Kind of assay: FXR Transactivation Assay (GAL4 luciferase reporter in HEK293T cells). It counts as cell-based. On the procedure:
FXR Transactivation Assay
The present compounds were tested to assess their ability to stimulate FXR transactivation activity. The hFXR-LBD, coding sequence was inserted into the pBIND expression vector (Promega, E1581) to express FXR-GAL4 binding domain chimeric receptors. This expression vector and reporter vector (pGL4.35 which carry a stably integrated GAL4 promoter driven luciferase reporter gene) were co-transfected into HEK293T host cells. Upon agonist binding to the corresponding FXR-GAL4 chimeric receptor, the chimeric receptor binds to the GAL4 binding sites and stimulates the reporter gene.
All the working stock were shake for 5 min on plate shaker (QILINBEIER). Second, all cells were cultured as ATCC recommended. HEK293T cells were assayed in exponential growth phase. Removed culture medium from the flask and rinsed cells with PBS. Added TrypLE solution to the flask and make cells detach. Next, cells were washed once with complete growth medium. Then, cells were pelleted and washed twice with PBS to remove phenol red and resuspend them in medium to a proper concentration. Only cells with viability greater than 90% were used for assays. Seeded 6×10^6 HEK293T cells into a 100 mm dish and incubated at 37° C. under 5% CO2 atmosphere for 16 h. Third, Trans-IT reagent and Opti-MEM mix by inversion and incubate 5 min at room temperature. The cell transfection was performed by mixing DNA and the reagent mixture, as well as 6 μg GAL4-FXR plasmid or 2 μg pGL4.35 luciferase plasmid, respectively. The reagent mixture was added to a 100 mm dish and incubated for 4-7 hrs at 37° C. under 5% CO2 atmosphere. Fourth, transferred 75 nl compound dilutions into 384-well assay plates (PerkinElmer) and seeded HEK293T cells at 17,000 cells/well using phenol red-free DMEM containing 5% charcoal/dextran-treated FBS. Then, cells were incubated for 16-20 h at 37° C. under 5% CO2 atmosphere. Finally, added 25 μl Steady-Glo™ Luciferase Assay Reagent into each well of 384-well assay plate, and then shake plate for 5 min protected from light on a plate shaker. Then, the luminescence value was read on Evision 2104 plate reader (PerkinElmer).
The activity ratio was calculated as follow: […]
RLU: Resulting Luminescence
RLUpositive: The average RLU for the positive controls across the plate.
RLUvehicle: The average RLU for negative controls across the plate.
as §1, §2
(A reporter such as luciferase makes a cellular process visible.)

pEC50: −log10 of the molar value.

For orientation: Emax means the size of the effect at its maximum, as opposed to the concentration needed. What is called pEC50 is the EC50 on a negative log10 scale, so that one unit is a factor of ten. A low value points to a high EC50.

As for `Cn1cc(C(=O)O)c2ccc(N3CCN(CCc4c(-c5c(Cl)cccc5Cl)noc4C4CC4)CC3)cc21` [Example I1, 6-(4-(2-(5-cyclopropyl-3-(2,6-dichlorophenyl)isoxazol-4-yl)ethyl)piperazin-1-yl)-1-methyl-1H-indole-3-carboxylic Acid], on FXR LBD, GST, the Emax came out at 161% and the pEC50 was 7.24. Besides, the negative-log EC50 (pEC50) in assay [1] is 7.00.

Take `Cn1cc(C(=O)O)c2ccc(N3CCN(C(=O)Cc4c(-c5c(Cl)cccc5Cl)noc4C4CC4)CC3)cc21` [Example I2, 6-(4-(2-(5-cyclopropyl-3-(2,6-dichlorophenyl)isoxazol-4-yl)acetyl)piperazin-1-yl)-1-methyl-1H-indole-3-carboxylic Acid]: on FXR LBD, GST, the Emax was found to be 75.1% and the negative-log EC50 (pEC50) is 5.29. Besides, the negative-log EC50 (pEC50) in assay [1] was 4.95.

Consider `CC(C)c1onc(-c2c(Cl)cccc2Cl)c1CCN1CCN(c2ccc3c(C(=O)O)cn(C)c3c2)CC1` [Example I3, 6-(4-(2-(3-(2,6-dichlorophenyl)-5-isopropylisoxazol-4-yl)ethyl)piperazin-1-yl)-1-methyl-1H-indole-3-carboxylic Acid], for which, on FXR LBD, GST, the maximal effect (Emax) amounted to 192% and the negative-log EC50 (pEC50) is 7.04. Also, the negative logarithm of the EC50 (pEC50) in assay [1] was 6.62.

Consider `O=C(O)c1ccc2nc(N3CCN(CCc4c(-c5c(Cl)cccc5Cl)noc4C4CC4)CC3)sc2c1` [Example I4, 2-(4-(2-(5-cyclopropyl-3-(2,6-dichlorophenyl)isoxazol-4-yl)ethyl)piperazin-1-yl)benzo[d]thiazole-6-carboxylic Acid], for which, at FXR LBD, GST, the Emax worked out at 89.8% and the negative logarithm of the EC50 (pEC50) was 6.61. In assay [1], this compound showed a pEC50 of 5.82.

In the case of `O=C(O)c1cc(F)c2nc(N3CCN(CCc4c(-c5ccccc5OC(F)(F)F)noc4C4CC4)CC3)sc2c1` [Example I5, 2-(4-(2-(5-cyclopropyl-3-(2-(trifluoromethoxy)phenyl)isoxazol-4-yl)ethyl)piperazin-1-yl)-4-fluorobenzo[d]thiazole-6-carboxylic Acid], at FXR LBD, GST, the maximum response (Emax) amounted to 116% and the pEC50 was 6.53. This compound showed a negative-log EC50 (pEC50) in assay [1] of 5.62.

As for `O=C(O)c1ccc2cc(N3CCN(CCc4c(-c5c(Cl)cccc5Cl)noc4C4CC4)CC3)ccc2n1` [Example I6, 6-(4-(2-(5-cyclopropyl-3-(2,6-dichlorophenyl)isoxazol-4-yl)ethyl)piperazin-1-yl)quinoline-2-carboxylic Acid], at FXR LBD, GST, the Emax was 142% and the negative-log EC50 (pEC50) was 6.93. In assay [1], this compound gave a negative-log EC50 (pEC50) of 6.34.

`COC(=O)c1ccc2cc(N3CCN(CCc4c(-c5c(Cl)cccc5Cl)noc4C4CC4)C(C)C3)ccc2n1` (centres unmarked) [Example I53, methyl 6-(4-(2-(5-cyclopropyl-3-(2,6-dichlorophenyl)isoxazol-4-yl)ethyl)-3-methylpiperazin-1-yl)quinoline-2-carboxylate]: on FXR LBD, GST, the Emax came out at 68.4% and the pEC50 is 6.36.

Turning to `CC1CCN(c2ccc3c(C(=O)O)cn(C)c3c2)CCN1CCc1c(-c2c(Cl)cccc2Cl)noc1C1CC1` (centres unmarked) [Example I55, 6-(4-(2-(5-cyclopropyl-3-(2,6-dichlorophenyl)isoxazol-4-yl)ethyl)-5-methyl-1,4-diazepan-1-yl)-1-methyl-1H-indole-3-carboxylic Acid], at FXR LBD, GST, the maximal effect (Emax) amounted to 70.9% and the negative-log EC50 (pEC50) was 5.56.

In the case of `COC(=O)c1cn(C)c2cc(N3CCC(C)N(CCc4c(-c5c(Cl)cccc5Cl)noc4C4CC4)CC3)ccc12` (centres unmarked) [Example I56, methyl 6-(4-(2-(5-cyclopropyl-3-(2,6-dichlorophenyl)isoxazol-4-yl)ethyl)-5-methyl-1,4-diazepan-1-yl)-1-methyl-1H-indole-3-carboxylate], the pEC50 at FXR LBD, GST was < 5.00.

In the case of `CC1CC(c2ccc3c(C(=O)O)cn(C)c3c2)CCN1CCc1c(-c2c(Cl)cccc2Cl)noc1C1CC1` (centres unmarked) [Example I57, 6-(1-(2-(5-cyclopropyl-3-(2,6-dichlorophenyl)isoxazol-4-yl)ethyl)-2-methylpiperidin-4-yl)-1-methyl-1H-indole-3-carboxylic Acid], on FXR LBD, GST, the Emax came to 180% and the negative logarithm of the EC50 (pEC50) was 6.42.

With `COC(=O)c1cn(C)c2cc(N3CCC(N(C)Cc4c(-c5c(Cl)cccc5Cl)noc4C4CC4)CC3)ccc12` [Example I59, methyl 6-(4-(((5-cyclopropyl-3-(2,6-dichlorophenyl)isoxazol-4-yl)methyl)(methyl)amino)piperidin-1-yl)-1-methyl-1H-indole-3-carboxylate], on FXR LBD, GST, the negative logarithm of the EC50 (pEC50) is < 5.00.

Consider `O=C(O)c1cc(F)c2nc(N3CC4CC(C3)C4OCc3c(-c4ccccc4OC(F)(F)F)noc3C3CC3)sc2c1` (centres unmarked) [Example I60, 2-(6-((5-cyclopropyl-3-(2-(trifluoromethoxy)phenyl)isoxazol-4-yl)methoxy)-3-azabicyclo[3.1.1]heptan-3-yl)-4-fluorobenzo[d]thiazole-6-carboxylic Acid], for which, on FXR LBD, GST, the maximum response (Emax) is 35.3% and the negative logarithm of the EC50 (pEC50) is 6.14.

For the compound `Cn1cc(C(=O)O)c2ccc(N3CC4CC(C3)C4OCc3c(-c4c(Cl)cccc4Cl)noc3C3CC3)cc21` (centres unmarked) [Example I61, 6-(6-((5-cyclopropyl-3-(2,6-dichlorophenyl)isoxazol-4-yl)methoxy)-3-azabicyclo[3.1.1]heptan-3-yl)-1-methyl-1H-indole-3-carboxylic Acid], on FXR LBD, GST, the Emax was found to be 67.7% and the pEC50 was 6.21.

As to `Cn1cc(C(=O)O)c2c(F)cc(N3CC4CC(C3)C4OCc3c(-c4c(Cl)cccc4Cl)noc3C3CC3)cc21` (centres unmarked) [Example I63, 6-(6-((5-cyclopropyl-3-(2,6-dichlorophenyl)isoxazol-4-yl)methoxy)-3-azabicyclo[3.1.1]heptan-3-yl)-4-fluoro-1-methyl-1H-indole-3-carboxylic Acid], on FXR LBD, GST, the Emax was 106% and the negative-log EC50 (pEC50) was 6.99.

Turning to `O=C(O)c1ccc2nc(N3CC4CC(C3)C4OCc3c(-c4c(Cl)cccc4Cl)noc3C3CC3)sc2c1` (centres unmarked) [Example I65, 2-(6-((5-cyclopropyl-3-(2,6-dichlorophenyl)isoxazol-4-yl)methoxy)-3-azabicyclo[3.1.1]heptan-3-yl)benzo[d]thiazole-6-carboxylic Acid], the negative-log EC50 (pEC50) at FXR LBD, GST is < 5.00.

On to `O=C(O)c1ccc2nc(N3CC4CC(C3)C4OCc3c(-c4ccccc4OC(F)(F)F)noc3C3CC3)sc2c1` (centres unmarked) [Example I66, 2-(6-((5-cyclopropyl-3-(2-(trifluoromethoxy)phenyl)isoxazol-4-yl)methoxy)-3-azabicyclo[3.1.1]heptan-3-yl)benzo[d]thiazole-6-carboxylic Acid], for which the negative-log EC50 (pEC50) on FXR LBD, GST is < 5.00.

With `O=C(O)c1ccc2nc(N3CC4CC(C3)C4OCc3c(-c4c(Cl)cccc4Cl)noc3C3CC3)sc2c1` (centres unmarked) [Example I67, 2-(6-((5-cyclopropyl-3-(2,6-dichlorophenyl)isoxazol-4-yl)methoxy)-3-azabicyclo[3.1.1]heptan-3-yl)benzo[d]thiazole-6-carboxylic Acid], the pEC50 on FXR LBD, GST is < 5.00.

Source of the values: patent US20220227745A1, “Compounds For Modulating FXR” (NANJING RUIJIE PHARMA TECH CO., LTD., priority 2019, published 2022).
